This note sets out measurements from ChEMBL document CHEMBL1128102, “1,5-Benzodiazepines as CCK-B antagonists. Effect of halogen substitution at the benzo-fused ring on potency and selectivity” (Bioorg Med Chem Lett, 1995).

For assay [1], the target named is T1, Cholecystokinin receptor type A (Rattus norvegicus, UniProt P30551).
T1 sequence (P30551 whole entry): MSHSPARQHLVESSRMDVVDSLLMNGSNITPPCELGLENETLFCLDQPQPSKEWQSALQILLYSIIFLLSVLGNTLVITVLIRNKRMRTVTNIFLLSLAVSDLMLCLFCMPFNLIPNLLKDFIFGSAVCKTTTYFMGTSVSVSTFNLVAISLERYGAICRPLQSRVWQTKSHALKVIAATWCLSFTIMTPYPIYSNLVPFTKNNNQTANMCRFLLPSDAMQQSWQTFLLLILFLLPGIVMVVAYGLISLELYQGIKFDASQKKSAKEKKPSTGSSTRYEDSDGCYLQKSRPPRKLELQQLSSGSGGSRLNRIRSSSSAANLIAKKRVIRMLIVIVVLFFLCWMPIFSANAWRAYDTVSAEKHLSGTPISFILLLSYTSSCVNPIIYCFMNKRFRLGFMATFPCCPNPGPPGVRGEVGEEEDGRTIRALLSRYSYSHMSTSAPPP
The assay can be described thus: Binding affinity was measured by its ability to displace [3H]CCK-8S from CCK-A receptor in rat pancreas.

The target of assay [2] is Cholecystokinin receptor (Homo sapiens) (UniProt P32239+P32238). The experiment in a line: Selectivity was determined as the ratio for binding affinities of CCK-A receptor to CCK-B receptor. In kind it is protein assay.
Sequence of Cholecystokinin receptor (Homo sapiens) (P32238 whole entry, looked up): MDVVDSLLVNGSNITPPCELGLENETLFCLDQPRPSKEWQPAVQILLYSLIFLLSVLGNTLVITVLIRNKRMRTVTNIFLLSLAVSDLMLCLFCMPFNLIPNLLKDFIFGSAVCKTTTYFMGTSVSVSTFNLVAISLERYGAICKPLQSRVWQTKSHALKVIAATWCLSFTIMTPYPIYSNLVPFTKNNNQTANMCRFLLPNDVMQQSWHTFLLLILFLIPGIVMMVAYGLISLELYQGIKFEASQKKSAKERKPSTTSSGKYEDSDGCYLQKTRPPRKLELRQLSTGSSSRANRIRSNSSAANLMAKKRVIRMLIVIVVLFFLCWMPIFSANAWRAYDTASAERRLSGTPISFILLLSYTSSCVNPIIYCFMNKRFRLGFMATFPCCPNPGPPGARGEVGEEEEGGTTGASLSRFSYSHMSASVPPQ
Sequence of Cholecystokinin receptor (Homo sapiens) (P32239 whole entry, looked up): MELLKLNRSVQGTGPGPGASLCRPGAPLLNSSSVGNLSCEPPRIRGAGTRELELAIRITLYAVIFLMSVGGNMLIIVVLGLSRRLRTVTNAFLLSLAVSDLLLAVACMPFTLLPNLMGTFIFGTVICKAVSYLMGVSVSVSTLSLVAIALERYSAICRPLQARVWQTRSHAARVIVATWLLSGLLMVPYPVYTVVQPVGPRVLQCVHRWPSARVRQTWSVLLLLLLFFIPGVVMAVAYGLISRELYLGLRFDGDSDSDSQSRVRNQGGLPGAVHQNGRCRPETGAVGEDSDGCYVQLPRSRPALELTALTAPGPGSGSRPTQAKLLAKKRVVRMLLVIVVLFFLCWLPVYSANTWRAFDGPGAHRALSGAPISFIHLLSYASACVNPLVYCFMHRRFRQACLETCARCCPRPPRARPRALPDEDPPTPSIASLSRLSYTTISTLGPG

The Ki is a dissociation constant, usually derived from enzyme kinetics or from competition with a known ligand. Read a high Ki as lower affinity. On to `CC(C)CCN1C(=O)C(NC(=O)Nc2ccccc2)C(=O)N(c2ccccc2)c2ccc(Cl)cc21` (stereo not given), for which the Ki in assay [1] was 41.7 nM. Further, in assay [2], the Ratio was 23.

Regarding `CC(C)CCN1C(=O)C(NC(=O)Nc2ccccc2)C(=O)N(c2ccccc2)c2cc(F)ccc21` (stereo not given), in assay [1], affinity was put at a Ki of 4.57 nM. Further, the Ratio in assay [2] was 49.

`CC(C)CCN1C(=O)C(NC(=O)Nc2ccccc2)C(=O)N(c2ccccc2)c2cc(Cl)c(Cl)cc21` (stereo not given) gave an inhibitory constant (Ki) in assay [1] of 9.77 nM. Besides, the Ratio in assay [2] came out at 162.

In assay [1], `CC(C)CCN1C(=O)C(NC(=O)Nc2ccccc2)C(=O)N(c2ccccc2)c2ccc(F)cc21` (stereo not given) showed an inhibition constant Ki of 8.91 nM. Further, the Ratio in assay [2] is more than 110.

Consider `CC(C)CCN1C(=O)C(NC(=O)Nc2ccccc2)C(=O)N(c2ccccc2)c2cc(Cl)ccc21` (stereo not given), for which the Ki in assay [1] is 4.9 nM. Besides, the Ratio in assay [2] came to 195.
